Where a SMILES comes first, the peptide text is derived from it. [ ]: non-standard residue; d: D form. Aib = CC(C)(N)C(=O)O
How the values were obtained:
human GLP-1R = human GLP-1R (Homo sapiens, UniProt P43220); experiment: Peptide-receptor mediated cAMP accumulation (LANCE Ultra cAMP) in CHO-K1 cells transfected with human GLP-1R; assay type: cell-based; settings: hGLP1 pEC50 (cAMP mean (n = 3): 11 point curve starting at 1 nM, Table 3)
in vivo = settings: male, rat
human GCGR = human GCGR (Homo sapiens, UniProt P47871); experiment: Peptide-receptor mediated cAMP accumulation (LANCE Ultra cAMP) in CHO-K1 cells transfected with human GCGR; assay type: cell-based; settings: Table 3
Sequence of human GCGR (P47871 26-477): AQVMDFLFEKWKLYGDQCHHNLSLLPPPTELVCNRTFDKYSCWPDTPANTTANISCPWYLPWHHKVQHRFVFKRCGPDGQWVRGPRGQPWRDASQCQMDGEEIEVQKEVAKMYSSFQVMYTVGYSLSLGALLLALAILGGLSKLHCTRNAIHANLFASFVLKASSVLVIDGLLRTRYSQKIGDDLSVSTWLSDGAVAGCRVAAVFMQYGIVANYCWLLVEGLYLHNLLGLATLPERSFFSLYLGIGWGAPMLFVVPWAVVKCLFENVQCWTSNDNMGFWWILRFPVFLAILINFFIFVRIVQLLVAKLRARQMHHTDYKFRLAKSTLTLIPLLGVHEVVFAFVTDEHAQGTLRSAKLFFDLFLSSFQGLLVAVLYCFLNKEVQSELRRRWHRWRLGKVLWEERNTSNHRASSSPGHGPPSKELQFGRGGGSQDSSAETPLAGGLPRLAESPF

Sequence of human GLP-1R (P43220 24-463): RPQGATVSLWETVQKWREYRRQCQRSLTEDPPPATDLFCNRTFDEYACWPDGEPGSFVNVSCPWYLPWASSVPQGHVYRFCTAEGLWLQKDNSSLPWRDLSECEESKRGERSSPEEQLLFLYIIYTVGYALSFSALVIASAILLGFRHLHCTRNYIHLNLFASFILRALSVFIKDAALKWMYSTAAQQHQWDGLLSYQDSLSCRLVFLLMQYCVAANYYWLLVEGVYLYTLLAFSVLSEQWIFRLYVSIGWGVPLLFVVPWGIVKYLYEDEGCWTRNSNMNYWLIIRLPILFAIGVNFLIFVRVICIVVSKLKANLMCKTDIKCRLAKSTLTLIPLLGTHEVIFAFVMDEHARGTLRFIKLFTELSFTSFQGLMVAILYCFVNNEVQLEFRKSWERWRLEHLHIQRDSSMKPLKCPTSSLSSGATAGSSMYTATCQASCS

`CC(C)C[C@H](NC(=O)[C@H](Cc1ccc(O)cc1)NC(=O)[C@H](CCCCN)NC(=O)[C@H](CO)NC(=O)[C@H](Cc1ccc(O)cc1)NC(=O)[C@H](CC(=O)O)NC(=O)[C@H](CO)NC(=O)[C@@H](NC(=O)[C@H](Cc1ccccc1)NC(=O)[C@@H](NC(=O)CNC(=O)[C@H](Cc1c[nH]cn1)NC(=O)[C@H](CO)NC(=O)[C@@H](N)Cc1ccc(O)cc1)[C@@H](C)O)[C@@H](C)O)C(=O)N[C@@H](CC(=O)O)C(=O)N[C@@H](CCCCN)C(=O)N[C@@H](C)C(=O)N[C@@H](CCCNC(=N)N)C(=O)N[C@@H](C)C(=O)N[C@@H](CCC(N)=O)C(=O)N[C@@H](CCC(=O)O)C(=O)N[C@@H](Cc1ccccc1)C(=O)N[C@H](C(=O)N[C@@H](CCCCN)C(=O)N[C@@H](Cc1c[nH]c2ccccc12)C(=O)N[C@@H](CC(C)C)C(=O)N[C@@H](CCC(=O)O)C(=O)N[C@@H](CC(=O)O)C(=O)N[C@@H](CCC(=O)O)C(=O)N1CCC[C@H]1C(=O)N[C@@H](CO)C(=O)N[C@@H](CO)C(=O)NCC(=O)N[C@@H](C)C(=O)N1CCC[C@H]1C(=O)N1CCC[C@H]1C(=O)N1CCC[C@H]1C(=O)N[C@@H](CO)C(=O)O)C(C)C` [Compound A43] (H-YSHGTFTSDYSKYLDKARAQEFVKWLEDEPSSGAPPPS-OH; N-terminus assumed) showed an EC50 (human GLP-1R) greater than 1000 pM, a clearance (in vivo) of 47 mL/min/kg and an EC50 (human GCGR) of 1.58 pM.
For `CC(C)C[C@H](NC(=O)[C@H](Cc1ccc(O)cc1)NC(=O)[C@H](CCCCN)NC(=O)[C@H](CO)NC(=O)[C@H](Cc1ccc(O)cc1)NC(=O)[C@H](CC(=O)O)NC(=O)[C@H](CO)NC(=O)[C@@H](NC(=O)[C@H](Cc1ccccc1)NC(=O)[C@@H](NC(=O)CNC(=O)[C@H](Cc1c[nH]cn1)NC(=O)[C@H](CO)NC(=O)[C@@H](N)Cc1ccc(O)cc1)[C@@H](C)O)[C@@H](C)O)C(=O)N[C@@H](CC(=O)O)C(=O)N[C@@H](CCC(N)=O)C(=O)N[C@@H](C)C(=O)N[C@@H](CCCNC(=N)N)C(=O)N[C@@H](C)C(=O)N[C@@H](CCC(N)=O)C(=O)N[C@@H](CCC(=O)O)C(=O)N[C@@H](Cc1ccccc1)C(=O)N[C@H](C(=O)N[C@@H](CCCCN)C(=O)N[C@@H](Cc1c[nH]c2ccccc12)C(=O)N[C@@H](CC(C)C)C(=O)N[C@@H](CCC(=O)O)C(=O)N[C@@H](CC(=O)O)C(=O)N[C@@H](CCC(=O)O)C(=O)N1CCC[C@H]1C(=O)N[C@@H](CO)C(=O)N[C@@H](CO)C(=O)NCC(=O)N[C@@H](C)C(=O)N1CCC[C@H]1C(=O)N1CCC[C@H]1C(=O)N1CCC[C@H]1C(=O)N[C@@H](CO)C(=O)O)C(C)C` [Compound A44] (H-YSHGTFTSDYSKYLDQARAQEFVKWLEDEPSSGAPPPS-OH; N-terminus assumed), the EC50 (human GLP-1R) was greater than 1000 pM, the clearance (in vivo) was 23.9 mL/min/kg and the EC50 (human GCGR) was 1.26 pM.
In the case of `CC(C)C[C@H](NC(=O)[C@H](Cc1ccc(O)cc1)NC(=O)[C@H](CCCCN)NC(=O)[C@H](CO)NC(=O)[C@H](Cc1ccc(O)cc1)NC(=O)[C@H](CC(=O)O)NC(=O)[C@H](CO)NC(=O)[C@@H](NC(=O)[C@H](Cc1ccccc1)NC(=O)[C@@H](NC(=O)CNC(=O)[C@H](Cc1c[nH]cn1)NC(=O)[C@H](CO)NC(=O)[C@@H](N)Cc1ccc(O)cc1)[C@@H](C)O)[C@@H](C)O)C(=O)N[C@@H](CC(=O)O)C(=O)N[C@@H](CO)C(=O)N[C@@H](C)C(=O)N[C@@H](CCCNC(=N)N)C(=O)N[C@@H](C)C(=O)N[C@@H](CCC(N)=O)C(=O)N[C@@H](CCC(=O)O)C(=O)N[C@@H](Cc1ccccc1)C(=O)N[C@H](C(=O)N[C@@H](CCCCN)C(=O)N[C@@H](Cc1c[nH]c2ccccc12)C(=O)N[C@@H](CC(C)C)C(=O)N[C@@H](CCC(=O)O)C(=O)N[C@@H](CC(=O)O)C(=O)N[C@@H](CCC(=O)O)C(=O)N1CCC[C@H]1C(=O)N[C@@H](CO)C(=O)N[C@@H](CO)C(=O)NCC(=O)N[C@@H](CCCCN)C(=O)N1CCC[C@H]1C(=O)N1CCC[C@H]1C(=O)N1CCC[C@H]1C(=O)N[C@@H](CO)C(=O)O)C(C)C` [Compound A61] (H-YSHGTFTSDYSKYLDSARAQEFVKWLEDEPSSGKPPPS-OH; N-terminus assumed), the EC50 (human GLP-1R) is reported as greater than 1000 pM, the clearance (in vivo) is reported as 29.4 mL/min/kg and the EC50 (human GCGR) is reported as 3.98 pM.
Compound `CC(C)C[C@H](NC(=O)[C@H](Cc1ccc(O)cc1)NC(=O)[C@H](CCCCN)NC(=O)[C@H](CO)NC(=O)[C@H](Cc1ccc(O)cc1)NC(=O)[C@H](CC(=O)O)NC(=O)[C@H](CO)NC(=O)[C@@H](NC(=O)[C@H](Cc1ccccc1)NC(=O)[C@@H](NC(=O)CNC(=O)[C@H](Cc1c[nH]cn1)NC(=O)[C@H](CO)NC(=O)[C@@H](N)Cc1ccc(O)cc1)[C@@H](C)O)[C@@H](C)O)C(=O)N[C@@H](CC(=O)O)C(=O)N[C@@H](CO)C(=O)N[C@@H](C)C(=O)N[C@@H](CCCNC(=N)N)C(=O)N[C@@H](C)C(=O)N[C@@H](CCC(N)=O)C(=O)N[C@@H](CCC(=O)O)C(=O)N[C@@H](Cc1ccccc1)C(=O)N[C@H](C(=O)N[C@@H](CCCCN)C(=O)N[C@@H](Cc1c[nH]c2ccccc12)C(=O)N[C@@H](CC(C)C)C(=O)N[C@@H](CCC(=O)O)C(=O)N[C@@H](CC(=O)O)C(=O)N[C@@H](CCC(=O)O)C(=O)N1CCC[C@H]1C(=O)N[C@@H](CCCCN)C(=O)N[C@@H](CO)C(=O)N[C@@H](CCCCN)C(=O)N[C@@H](CO)C(=O)N1CCC[C@H]1C(=O)N1CCC[C@H]1C(=O)N1CCC[C@H]1C(=O)N[C@@H](CO)C(=O)O)C(C)C` [Compound A70] (H-YSHGTFTSDYSKYLDSARAQEFVKWLEDEPKSKSPPPS-OH; N-terminus assumed) has an EC50 (human GLP-1R) greater than 1000 pM, a clearance (in vivo) of 20.9 mL/min/kg and an EC50 (human GCGR) of 1 pM.
Work on `CC(C)C[C@H](NC(=O)[C@H](Cc1ccc(O)cc1)NC(=O)[C@H](CCCCN)NC(=O)[C@H](CO)NC(=O)[C@H](Cc1ccc(O)cc1)NC(=O)[C@H](CC(=O)O)NC(=O)[C@H](CO)NC(=O)[C@@H](NC(=O)[C@H](Cc1ccccc1)NC(=O)[C@@H](NC(=O)CNC(=O)[C@H](Cc1c[nH]cn1)NC(=O)[C@H](CO)NC(=O)[C@@H](N)Cc1ccc(O)cc1)[C@@H](C)O)[C@@H](C)O)C(=O)N[C@@H](CC(=O)O)C(=O)N[C@@H](CO)C(=O)N[C@@H](C)C(=O)N[C@@H](CCCNC(=N)N)C(=O)N[C@@H](C)C(=O)N[C@@H](CCC(N)=O)C(=O)N[C@@H](CCC(=O)O)C(=O)N[C@@H](Cc1ccccc1)C(=O)N[C@H](C(=O)N[C@@H](CCCCN)C(=O)N[C@@H](Cc1c[nH]c2ccccc12)C(=O)N[C@@H](CC(C)C)C(=O)N[C@@H](CCC(=O)O)C(=O)N[C@@H](CC(=O)O)C(=O)N[C@@H](CCC(=O)O)C(=O)N1CCC[C@H]1C(=O)N[C@@H](CCCCN)C(=O)N[C@@H](CO)C(=O)N[C@@H](CCCCN)C(=O)N[C@@H](CO)C(=O)N1CCC[C@H]1C(=O)N1CCC[C@H]1C(=O)N1CCC[C@H]1C(=O)N[C@@H](CO)C(N)=O)C(C)C` [Compound A73] (H-YSHGTFTSDYSKYLDSARAQEFVKWLEDEPKSKSPPPS-NH2; N-terminus assumed) yielded an EC50 (human GLP-1R) greater than 1000 pM, a clearance (in vivo) of 23 mL/min/kg and an EC50 (human GCGR) of 2 pM.
`CC(C)C[C@H](NC(=O)[C@H](Cc1ccc(O)cc1)NC(=O)[C@H](CCCCN)NC(=O)[C@H](CO)NC(=O)[C@H](Cc1ccc(O)cc1)NC(=O)[C@H](CC(=O)O)NC(=O)[C@H](CO)NC(=O)[C@@H](NC(=O)[C@H](Cc1ccccc1)NC(=O)[C@@H](NC(=O)CNC(=O)[C@H](CCC(N)=O)NC(=O)[C@H](CO)NC(=O)[C@@H](N)Cc1ccc(O)cc1)[C@@H](C)O)[C@@H](C)O)C(=O)N[C@@H](CC(=O)O)C(=O)NC(C)(C)C(=O)N[C@@H](CCCCN)C(=O)N[C@@H](CCCNC(=N)N)C(=O)N[C@@H](C)C(=O)N[C@@H](CCC(N)=O)C(=O)N[C@@H](CCC(=O)O)C(=O)N[C@@H](Cc1ccccc1)C(=O)N[C@H](C(=O)NC(C)(C)C(=O)N[C@@H](Cc1c[nH]c2ccccc12)C(=O)N[C@@H](CC(C)C)C(=O)N[C@@H](CCC(=O)O)C(=O)N[C@@H](CC(=O)O)C(=O)N[C@@H](CCC(=O)O)C(=O)N1CCC[C@H]1C(=O)N[C@@H](CO)C(=O)N[C@@H](CO)C(=O)NCC(=O)N[C@@H](C)C(=O)N1CCC[C@H]1C(=O)N1CCC[C@H]1C(=O)N1CCC[C@H]1C(=O)N[C@@H](CO)C(=O)O)C(C)C` [Compound A94] (H-YSQGTFTSDYSKYLD[Aib]KRAQEFV[Aib]WLEDEPSSGAPPPS-OH; N-terminus assumed) gave an EC50 (human GLP-1R) greater than 1000 pM and a clearance (in vivo) of 16.5 mL/min/kg.
For `CC(C)C[C@H](NC(=O)[C@H](Cc1ccc(O)cc1)NC(=O)[C@H](CCCCN)NC(=O)[C@H](CO)NC(=O)[C@H](Cc1ccc(O)cc1)NC(=O)[C@H](CC(=O)O)NC(=O)[C@H](CO)NC(=O)[C@@H](NC(=O)[C@H](Cc1ccccc1)NC(=O)[C@@H](NC(=O)CNC(=O)[C@H](CCC(N)=O)NC(=O)[C@H](CO)NC(=O)[C@@H](N)Cc1ccc(O)cc1)[C@@H](C)O)[C@@H](C)O)C(=O)N[C@@H](CC(=O)O)C(=O)NC(C)(C)C(=O)N[C@@H](CCCCN)C(=O)N[C@@H](C)C(=O)N[C@@H](C)C(=O)N[C@@H](CCC(N)=O)C(=O)N[C@@H](CCC(=O)O)C(=O)N[C@@H](Cc1ccccc1)C(=O)N[C@H](C(=O)NC(C)(C)C(=O)N[C@@H](Cc1c[nH]c2ccccc12)C(=O)N[C@@H](CC(C)C)C(=O)N[C@@H](CCC(=O)O)C(=O)N[C@@H](CC(=O)O)C(=O)N[C@@H](CCC(=O)O)C(=O)N1CCC[C@H]1C(=O)N[C@@H](CO)C(=O)N[C@@H](CO)C(=O)NCC(=O)N[C@@H](C)C(=O)N1CCC[C@H]1C(=O)N1CCC[C@H]1C(=O)N1CCC[C@H]1C(=O)N[C@@H](CO)C(=O)O)C(C)C` [Compound A95] (H-YSQGTFTSDYSKYLD[Aib]KAAQEFV[Aib]WLEDEPSSGAPPPS-OH; N-terminus assumed), the EC50 (human GLP-1R) was greater than 1000 pM and the clearance (in vivo) was 15.4 mL/min/kg.

From patent publication US20240239861A1, “GLUCAGON-RECEPTOR SELECTIVE POLYPEPTIDES AND METHODS OF USE THEREOF” (i2O Therapeutics, Inc., priority 2016, published 2024)
